Patent publication US20140206763A1, “PHENYLBUTYRATE FOR TREATMENT OF SPORADIC INCLUSION-BODY MYOSITIS AND DISORDERS RELATING TO AUTOPHAGY IMPAIRMENT OR AMYLOID BETA 42 ACCUMULATION” (UNIVERSITY OF SOUTHERN CALIFORNIA, priority 2013, published 2014)
Entries after “also recorded” stand apart in the source; their conditions may differ.

Assays:
[1] = system: cultured human muscle fibers (CHMFs); experiment: Vacuolization of cultured human muscle fibers by phase-contrast microscopy; type: cell-based; conditions: for vacuolization of CHMFs after exposure to lysosomal inhibitor alone: exposure alone 24 hours, vs control CHMFs; for vacuolization of chloroquine-exposed CHMFs: chloroquine 50 μM 24 hours + NaPB 15 mM, vs chloroquine alone
Experimental: (§1) Primary cultures of normal human muscle were established as routinely performed in our laboratory (Askanas and Engel, 1992) from archived satellite cells of portions of diagnostic muscle biopsies from patients who, after all tests were performed, were considered free of muscle disease. Each experiment was performed on 3-9 different culture sets, each established from satellite cells derived from a different muscle biopsy. 10-15 days after myoblast fusion, the well-differentiated myotubes were, as previously described (Nogalska et al., 2012; Nogalska et al., 2010b), exposed for 24 hours to either: a) chloroquine (Chl), a lysosomotropic agent raising lysosomal pH and inhibiting activities of cathepsins (Shacka et al., 2006) (50 μM, Sigma-Aldrich, St. Louis, Mo.); or b) bafilomycin Al (Baf), an inhibitor of lysosomal V-ATPase causing an increase in lysosomal pH and inhibiting activities of cathepsins (Shacka et al., 2006) (25 nM, Sigma-Aldrich). CHMFs were also treated with NaPB (Tocris/R&D Systems, Minneapolis, Minn.) in doses ranging from 1-15 mM, used either alone or together with chloroquine or bafilomycin.

[2] = system: GFP-LC3; experiment: GFP-LC3 puncta count (autophagosome accumulation) in CHMFs; type: cell-based, human
Experimental: To morphologically evaluate accumulation of autophagosomes, three different tissue-culture sets (experiments) were transduced with PremoAutophagy Sensor GFP-LC3 (Invitrogen, Carlsbad, Calif.) according to the manufacturer's instructions. 24 hours later, CHMFs were treated with chloroquine as described above. Counting of the GFP-LC3 puncta in the muscle fibers was performed on all three different culture experiments. Each experiment involved the same three different conditions: control, chloroquine-exposed, and chloroquine-exposed-plus-NaPB-treated cultures. In each experiment, each condition was composed of two cultures. For the analysis, eight random fields per condition of each culture were photographed (magnification ×40) in each of the three experiments. Overall, in each of the three conditions GFP-LC3 puncta were evaluated in more than 80 fibers, independently by two investigators (AN and CD). In addition, GFP-LC3 transduced CHMFs were also processed for immunofluorescence of NBR1 (1:100, 4BR, Santa Cruz Biotechnology, Santa Cruz, Calif.).

[3] = system: LC3-II; experiment: LC3-II immunoblot with densitometric analysis in CHMFs; type: cell-based, human; conditions: for increase of LC3-II: exposure to inhibitor alone, vs control CHMFs
Experimental: as §1
(§2) CHMFs were harvested in RIPA buffer and immunoblotted, as previously detailed (D'Agostino et al., 2011; Nogalska et al., 2012; Nogalska et al., 2010b) using antibodies against LC3 (1:500, Novus Biologicals, Littleton, Colo.), p62 (1:100, A-6, Santa Cruz Biotechnology) or NBR1 (1:700). Aβ42 oligomers were studied using 6E10 antibody (1:500, Covance, Princeton, N.J.), as described (Nogalska et al., 2010a). Blots were developed using anti-rabbit or anti-mouse WesternBreeze chemiluminescence kits (Invitrogen). Protein loading was evaluated by the actin band (1:600, C-2, Santa Cruz Biotechnology). Quantification of the immunoreactivity was performed by densitometric analysis using NIH Image J 1.310 software.

[4] = system: NBR1; experiment: NBR1 immunoblot with densitometric analysis in CHMFs; type: cell-based, human; conditions: for increase of NBR1 levels: exposure to inhibitor alone, vs control CHMFs
Experimental: as §1, §2

[5] = system: p62; experiment: p62 immunoblot with densitometric analysis in CHMFs; type: cell-based, human; conditions: for increase of p62: exposure to inhibitor alone, vs control CHMFs
Experimental: as §1, §2

[6] = system: Cathepsin D; experiment: Measurement of Cathepsin D activity in CHMF homogenates; type: cell-based, human; conditions: for reduction of Cathepsin D activity: exposure to inhibitor alone, vs control CHMFs
Experimental: as §1
Cathepsin D [EC 3.4.23.5] activity was measured utilizing a Cathepsin D Assay Kit (Sigma, St. Louis, Mo.) according to manufacturer's instructions and as previously detailed (Nogalska et al., 2010b). Homogenates were prepared in phosphate buffer-saline with addition of CHAPS (0.05%) (Sigma-Aldrich). All samples were measured in duplicate. The fluorescence emission excited at 355 nm was recorded at 405 nm every 2 minutes. Activity of cathepsin D measured in the linear phase of the reaction was expressed as fluorescence-intensity per minute.

[7] = system: Cathepsin B; experiment: Measurement of Cathepsin B activity in CHMFs; type: cell-based, human; conditions: for reduction of Cathepsin B activity: exposure to inhibitor alone, vs control CHMFs
Experimental: as §1
Cathepsin B [EC 3.4.22.1] activity was measured as described (Nogalska et al., 2010b). Samples were measured in duplicate. All samples were incubated at 37° C. for 45 min, and the fluorescence emission excited at 355 nm was recorded at 444 nm. Activity of cathepsin B was expressed as arbitrary fluorescence units.

[8] = system: Aβ42; experiment: Aβ42 ELISA in CHMFs; type: cell-based, human
Experimental: as §1
To quantify endogenous Aβ42 content in cultured human muscle fibers, we used the “Human β-Amyloid (1-42) ELISA kit, WAKO, High Sensitive” (WAKO Chemicals USA, Inc., Richmond, Va.) as described (Nogalska et al., 2012). Homogenates were freshly prepared in RIPA buffer containing a protease inhibitor cocktail (Roche Diagnostic, Mannheim, Germany). 100 μg of protein per well from each sample were diluted in a Standard Diluent Buffer provided in the kit, added to the assay plates in duplicate, and incubated overnight at 4° C. The ELISA was performed the next day, according to manufacturer's protocol. The absorbance was read at 450 nm.

[9] = system: γ-secretase; experiment: Measurement of γ-secretase activity in CHMFs; type: cell-based, human
Experimental: as §1
γ-secretase activity was measured as previously described (Nogalska et al., 2012). Briefly, cultures were homogenized in PBS buffer with addition of 0.05% CHAPS. The supernatants containing 50 μg of protein were added to the reaction mixture containing assay buffer (50 mM TRIS-HCl pH 6.8, 2 mM EDTA, 0.25% CHAPS). The reaction was initiated by adding a specific synthetic substrate NMA-Amyloid β-Protein (aa708-715)-Lys-(DNP) Arg-Arg-Arg-amide trifluoroacetate salt (10 μM) (Sigma-Aldrich). After overnight incubation at 37° C., the samples were centrifuged at 16,000×g for 15 minutes, supernatants were transferred to a 96-well plate and the fluorescence emission excited at 390 nm was recorded at 444 nm. Activity of γ-secretase was expressed as arbitrary fluorescence units.

[10] = patients with urea cycle-disorders, compared with NaPB; cited from earlier work
[11] = system: CHMFs; experiment: Treatment of CHMFs with HDAC inhibitor compared with PB; type: cell-based, human; conditions: data not shown
[12] = system: Aβ42 oligomers; experiment: Aβ42 oligomers immunoblot (6E10 antibody) in CHMFs; type: cell-based, human
Experimental: Primary cultures of normal human muscle were established as routinely performed in our laboratory (Askanas and Engel, 1992) from archived satellite cells of portions of diagnostic muscle biopsies from patients who, after all tests were performed, were considered free of muscle disease. Each experiment was performed on 3-9 different culture sets, each established from satellite cells derived from a different muscle biopsy. […]
CHMFs were harvested in RIPA buffer and immunoblotted, as previously detailed (D'Agostino et al., 2011; Nogalska et al., 2012; Nogalska et al., 2010b) using antibodies against LC3 (1:500, Novus Biologicals, Littleton, Colo.), p62 (1:100, A-6, Santa Cruz Biotechnology) or NBR1 (1:700). […] Protein loading was evaluated by the actin band (1:600, C-2, Santa Cruz Biotechnology). Quantification of the immunoreactivity was performed by densitometric analysis using NIH Image J 1.310 software.

[13] = system: control CHMFs; experiment: Morphology and muscle-fiber viability of control CHMFs; type: cell-based, human; conditions: 15 mM NaPB
Experimental: as §1

[14] = cited from earlier work
[15] = chloroquine alone vs control CHMFs
[16] = bafilomycin+NaPB (15 mM) vs bafilomycin alone
[17] = chloroquine+NaPB (15 mM) vs chloroquine alone
[18] = autophagy-impaired cultures, not significantly worse than controls
[19] = bafilomycin+NaPB (15 mM) vs bafilomycin without NaPB

SMILES: CCN(CC)CCCC(C)Nc1ccnc2cc(Cl)ccc12 (centres unmarked) [chloroquine]
- vacuolization of CHMFs after exposure to lysosomal inhibitor alone [1]: induced pronounced vacuolization
- increase of number of GFP-LC3 foci/puncta per muscle fiber ([2]; exposure alone, vs control CHMFs): 8 fold
- increase of LC3-II [3]: 9 fold
- increase of NBR1 levels [4]: 5 fold
- increase of p62 [5]: 9 fold
- reduction of Cathepsin D activity [6]: 40%
- reduction of Cathepsin B activity [7]: 60%
- increase of Aβ42 by ELISA [8, 15]: 60%
- γ-secretase activity after inhibitor exposure [9, 15]: significantly increased γ-secretase activity

SMILES: O=C(CCCc1ccccc1)OCC(COC(=O)CCCc1ccccc1)OC(=O)CCCc1ccccc1 [GPB, 1,2,3-Propanetriyl tris(4-phenylbutanoate)]
- lowering blood ammonia [10]: as effective as NaPB

SMILES: CO/C1=C\C(C)=C\[C@@H](C)[C@@H](O)[C@@H](C)C/C(C)=C/C=C/[C@H](OC)[C@@H]([C@@H](C)[C@@H](O)[C@H](C)[C@@]2(O)C[C@@H](O)[C@H](C)[C@@H](C(C)C)O2)OC1=O [bafilomycin, bafilomycin Al]
- vacuolization of CHMFs after exposure to lysosomal inhibitor alone [1]: induced pronounced vacuolization
- increase of LC3-II [3]: 17 fold
- increase of NBR1 levels [4]: 9 fold
- increase of p62 [5]: 18 fold
- reduction of Cathepsin D activity [6]: 25%
- reduction of Cathepsin B activity [7]: 85%
- Aβ42 by ELISA after inhibitor exposure ([8]; Baf-exposed CHMFs, two separate experiments): elevated

SMILES: CC(/C=C/C(=O)NO)=C\[C@@H](C)C(=O)c1ccc(N(C)C)cc1 [trichostatinA]
- ameliorative effect compared with PB [11]: did not have an effect similar to that achieved with PB

SMILES: O=C([O-])CCCc1ccccc1.[Na+] [NaPB, Sodium 4-phenylbutanoate]
- vacuolization of bafilomycin-exposed CHMFs ([1]; bafilomycin 25 nM 24 hours + NaPB 15 mM, vs bafilomycin alone): nearly completely prevented their vacuolization; also recorded: morphologically prominent decrease of their vacuolization
- vacuolization of chloroquine-exposed CHMFs [1]: virtually completely prevented their vacuolization
- vacuolization of chloroquine-exposed CHMFs ([1]; listed as PB): prominently eliminating their vacuolization
- decrease of number of GFP-LC3 foci ([2]; chloroquine+NaPB (15 mM) vs chloroquine-only exposed cultures): 53%
- decrease of LC3-II [3, 16]: 36%
- decrease of LC3-II [3, 17]: 54%
- effect on protein level of LC3-II ([3]; control CHMFs, NaPB 1-15 mM): did not exert any effect
- decrease of NBR1 [4, 16]: 34%
- reduction of increased NBR1 [4, 17]: 63%
- effect on protein level of NBR1 ([4]; control CHMFs, NaPB 1-15 mM): did not exert any effect
- decrease of p62 [5, 16]: 83%
- decrease of p62 [5, 17]: 74%
- effect on p62 at lower dose ([5]; chloroquine-exposed CHMFs, NaPB 5 mM): significantly decreased p62; also recorded: statistically significantly decreased
- effect on protein level of p62 ([5]; control CHMFs, NaPB 1-15 mM): did not exert any effect
- Cathepsin D value after NaPB treatment compared with controls (ANOVA) [6, 18]: fully corrected
- higher activity of Cathepsin D [6, 19]: 15%
- increase of Cathepsin D activity [6, 17]: 40%
- effect on Cathepsin D activity ([6]; control CHMFs, NaPB 1-15 mM): did not exert any effect
- effect on Cathepsin B activity in ER-stress model ([7]; ER-stress-induced CHMFs, data not shown): mitigates the reduction of Cathepsin B activity
- higher activity of Cathepsin B [7, 19]: 40%
- increase of Cathepsin B activity [7, 17]: 70%
- effect on Cathepsin B activity ([7]; control CHMFs, NaPB 1-15 mM): did not exert any effect
- Aβ42 by ELISA value after NaPB treatment compared with controls (ANOVA) [8, 18]: fully corrected
- lower amount of Aβ42 by ELISA ([8]; bafilomycin+NaPB (15 mM) vs bafilomycin alone, 2 culture sets, statistical significance not reached): 28%
- decrease of Aβ42 by ELISA [8, 17]: 53%
- lower amount of Aβ42 oligomers [12, 16]: 60%
- decrease of Aβ42 oligomers ([12]; chloroquine+NaPB (15 mM) vs autophagy-impaired NaPB-non-treated CHMFs): 65%
- γ-secretase activity value after NaPB treatment compared with controls (ANOVA) [9, 18]: fully corrected
- decrease of γ-secretase activity ([9]; chloroquine+NaPB (15 mM) vs untreated autophagy-impaired CHMFs): 56%
- adverse morphologic abnormalities and muscle-fiber viability [13]: did not produce either adverse morphologic abnormalities or affect muscle-fiber viability
- tolerability, daily and long-term ([14]; infants, children and adults with urea-cycle disorders): usually well tolerated
- tolerability in preliminary trials ([14]; patients with amyotrophic lateral sclerosis (ALS)): well-tolerated
